Tests used:
Format in all cases: in vivo
[1] = system: redroot pigweed (Amaranthus retroflexus, AMR); experiment: Pre-emerge test, redroot pigweed; conditions: 250 g ai/ha, 14 days after application, rating scale 0-100 (0 no damage, 100 complete death)
In short: (§1)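 Seeds planted 1 day pre-application in sandy loam soil mix; acetone solutions sprayed at 8 to 1000 g ai/ha (187 l/ha, flat fan nozzle, track sprayer). 14 d later, visual damage scored on a 0–100 scale.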

[2] = system: velvetleaf (Abutilon theophrasti, ABT); experiment: Pre-emerge test, velvetleaf; conditions: 250 g ai/ha, 14 days after application, rating scale 0-100 (0 no damage, 100 complete death)
In short: as §1

[3] = system: sicklepod (Cassia obtusifolia, CAO); experiment: Pre-emerge test, sicklepod; conditions: 250 g ai/ha, 14 days after application, rating scale 0-100 (0 no damage, 100 complete death)
In short: as §1

[4] = system: ivyleaf morningglory (Ipomoea hederacea, IPH); experiment: Pre-emerge test, ivyleaf morningglory; conditions: 250 g ai/ha, 14 days after application, rating scale 0-100 (0 no damage, 100 complete death)
In short: as §1

[5] = system: lambsquarters (Chenopodium album, CHA); experiment: Pre-emerge test, lambsquarters; conditions: 250 g ai/ha, 14 days after application, rating scale 0-100 (0 no damage, 100 complete death)
In short: as §1

[6] = system: common ragweed (Ambrosia artemisiifolia L., AML); experiment: Pre-emerge test, common ragweed; conditions: 250 g ai/ha, 14 days after application, rating scale 0-100 (0 no damage, 100 complete death)
In short: as §1

[7] = system: cocklebur (Xanthium strumariunt, XAS); experiment: Pre-emerge test, cocklebur; conditions: 250 g ai/ha, 14 days after application, rating scale 0-100 (0 no damage, 100 complete death)
In short: as §1

[8] = system: green foxtail (Setaria viridis, SEV); experiment: Pre-emerge test, green foxtail; conditions: 250 g ai/ha, 14 days after application, rating scale 0-100 (0 no damage, 100 complete death)
In short: as §1

[9] = system: barnyardgrass (Echinachloa crus-galli, ECC); experiment: Pre-emerge test, barnyardgrass; conditions: 250 g ai/ha, 14 days after application, rating scale 0-100 (0 no damage, 100 complete death)
In short: as §1

[10] = system: johnsongrass (Sorghum halepense, SOH); experiment: Pre-emerge test, johnsongrass; conditions: 250 g ai/ha, 14 days after application, rating scale 0-100 (0 no damage, 100 complete death)
In short: as §1

[11] = system: large crabgrass (Digitaria sanguinalis, DIS); experiment: Pre-emerge test, large crabgrass; conditions: 250 g ai/ha, 14 days after application, rating scale 0-100 (0 no damage, 100 complete death)
In short: as §1

[12] = system: field corn (Zea mays L., var. Dekalb 535, CORN); experiment: Pre-emerge test, crop damage field corn
In short: (§2)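 Efficacy values are 0–100 phytotoxicity scores (0 no damage, 100 complete death) recorded 14 days post-application. Spray was delivered pre-emergence at 187 l/ha with rates of 8–1000 g ai/ha, using acetone as solvent.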

[13] = system: soybean (Glycine max L., var. Pella 86, SOY); experiment: Pre-emerge test, crop damage soybean
In short: as §2

[14] = system: upland rice (Oryza sp., var.Tebonnet, RICE); experiment: Pre-emerge test, crop damage upland rice
In short: as §2

[15] = system: wheat (Triticum aestivum); experiment: Pre-emerge test, crop damage wheat
In short: as §2

[16] = system: redroot pigweed (Amaranthus retroflexus, AMR); experiment: Post-emerge test, redroot pigweed; conditions: 250 g ai/ha, 14 days after application, rating scale 0-100 (0 no damage, 100 complete death)
In short: (§3)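 Greenhouse post-emergence spray onto plants at about the 2-3 leaf stage in sandy loam pots, compound in acetone at 187 l/ha plus 0.25% v/v non-ionic surfactant, 8-1000 g ai/ha by track sprayer. Phytotoxicity scored 14 days after application, 0 (no damage) to 100 (complete death).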

[17] = system: velvetleaf (Abutilon theophrasti, ABT); experiment: Post-emerge test, velvetleaf; conditions: 250 g ai/ha, 14 days after application, rating scale 0-100 (0 no damage, 100 complete death)
In short: as §3

[18] = system: sicklepod (Cassia obtusifolia, CAO); experiment: Post-emerge test, sicklepod; conditions: 250 g ai/ha, 14 days after application, rating scale 0-100 (0 no damage, 100 complete death)
In short: as §3

[19] = system: ivyleaf morningglory (Ipomoea hederacea, IPH); experiment: Post-emerge test, ivyleaf morningglory; conditions: 250 g ai/ha, 14 days after application, rating scale 0-100 (0 no damage, 100 complete death)
In short: as §3

[20] = system: lambsquarters (Chenopodium album, CHA); experiment: Post-emerge test, lambsquarters; conditions: 250 g ai/ha, 14 days after application, rating scale 0-100 (0 no damage, 100 complete death)
In short: as §3

[21] = system: common ragweed (Ambrosia artemisiifolia L., AML); experiment: Post-emerge test, common ragweed; conditions: 250 g ai/ha, 14 days after application, rating scale 0-100 (0 no damage, 100 complete death)
In short: as §3

[22] = system: cocklebur (Xanthium strumariunt, XAS); experiment: Post-emerge test, cocklebur; conditions: 250 g ai/ha, 14 days after application, rating scale 0-100 (0 no damage, 100 complete death)
In short: as §3

[23] = system: green foxtail (Setaria viridis, SEV); experiment: Post-emerge test, green foxtail; conditions: 250 g ai/ha, 14 days after application, rating scale 0-100 (0 no damage, 100 complete death)
In short: as §3

[24] = system: barnyardgrass (Echinachloa crus-galli, ECC); experiment: Post-emerge test, barnyardgrass; conditions: 250 g ai/ha, 14 days after application, rating scale 0-100 (0 no damage, 100 complete death)
In short: as §3

[25] = system: johnsongrass (Sorghum halepense, SOH); experiment: Post-emerge test, johnsongrass; conditions: 250 g ai/ha, 14 days after application, rating scale 0-100 (0 no damage, 100 complete death)
In short: as §3

[26] = system: large crabgrass (Digitaria sanguinalis, DIS); experiment: Post-emerge test, large crabgrass; conditions: 250 g ai/ha, 14 days after application, rating scale 0-100 (0 no damage, 100 complete death)
In short: as §3

[27] = system: field corn (Zea mays L., var. Dekalb 535, CORN); experiment: Post-emerge test, crop damage field corn
In short: as §3

[28] = system: soybean (Glycine max L., var. Pella 86, SOY); experiment: Post-emerge test, crop damage soybean
In short: as §3

[29] = system: upland rice (Oryza sp., var.Tebonnet, RICE); experiment: Post-emerge test, crop damage upland rice
In short: as §3

[30] = system: wheat (Triticum aestivum); experiment: Post-emerge test, crop damage wheat
In short: as §3

[31] = var. Dekalb 535, Zea mays (field corn), in vivo, 14 days
[32] = var. Pella 86, Glycine max (soybean), in vivo, 14 days
[33] = var. Tebonnet, Oryza sp. (upland rice), in vivo, 14 days
[34] = Triticum aestivum (wheat), in vivo, 14 days
[35] = pre-emerge, 250 g ai/ha, 14 days after application, rating scale 0-100 (0 no damage, 100 complete death)
[36] = post-emerge, 250 g ai/ha, 14 days after application, rating scale 0-100 (0 no damage, 100 complete death)

Row | Structure (SMILES) | Pre-emerge Herbicidal Activity AMR (phytotoxicity rating) [1] | Pre-emerge Herbicidal Activity ABT (phytotoxicity rating) [2] | Pre-emerge Herbicidal Activity CAO (phytotoxicity rating) [3] | Pre-emerge Herbicidal Activity IPH (phytotoxicity rating) [4] | Pre-emerge Herbicidal Activity CHA (phytotoxicity rating) [5] | Pre-emerge Herbicidal Activity AML (phytotoxicity rating) [6] | Pre-emerge Herbicidal Activity XAS (phytotoxicity rating) [7] | Pre-emerge Herbicidal Activity SEV (phytotoxicity rating) [8] | Pre-emerge Herbicidal Activity ECC (phytotoxicity rating) [9] | Pre-emerge Herbicidal Activity SOH (phytotoxicity rating) [10] | Pre-emerge Herbicidal Activity DIS (phytotoxicity rating) [11] | Post-emerge Herbicidal Activity AMR (phytotoxicity rating) [16] | Post-emerge Herbicidal Activity ABT (phytotoxicity rating) [17] | Post-emerge Herbicidal Activity CAO (phytotoxicity rating) [18] | Post-emerge Herbicidal Activity IPH (phytotoxicity rating) [19] | Post-emerge Herbicidal Activity CHA (phytotoxicity rating) [20] | Post-emerge Herbicidal Activity AML (phytotoxicity rating) [21] | Post-emerge Herbicidal Activity XAS (phytotoxicity rating) [22] | Post-emerge Herbicidal Activity SEV (phytotoxicity rating) [23] | Post-emerge Herbicidal Activity ECC (phytotoxicity rating) [24] | other results
1 | CC1C(=O)Nc2c(-c3nn(C)c(OC(F)F)c3Cl)c(F)cc3c2N1C(=O)CO3 (stereo not drawn) [1-26, 8-[4-Chloro-5-(difluoromethoxy)-1-methyl-1H-pyrazole-3-yl)-9-fluoro-5-methyl-5H-pyrazino[1,2,3-de]-1,4-benzoxazine-3,6(2H, 7H)-dione] | 100 | 100 | 99 | 100 | 100 | 100 | 99 | 100 | 100 | 100 | 100 | 100 | 100 | 100 | 100 | 100 | 99 | 100 | 100 | 99 | Pre-emerge crop damage CORN (phytotoxicity rating) [12, 31]: 100; Pre-emerge crop damage SOY (phytotoxicity rating) [13, 32]: 98; Pre-emerge crop damage RICE (phytotoxicity rating) [14, 33]: 100; Pre-emerge crop damage WHEAT (phytotoxicity rating) [15, 34]: 98; Post-emerge Herbicidal Activity SOH (phytotoxicity rating) [25]: 80; Post-emerge Herbicidal Activity DIS (phytotoxicity rating) [26]: 40; Post-emerge crop damage CORN (phytotoxicity rating) [27, 31]: 40; Post-emerge crop damage SOY (phytotoxicity rating) [28, 32]: 100; Post-emerge crop damage RICE (phytotoxicity rating) [29, 33]: 90; Post-emerge crop damage WHEAT (phytotoxicity rating) [30, 34]: 60
2 | Cn1nc(-c2c(F)cc3c4c2NC(=O)C(C)(C)N4C(=O)CO3)c(Cl)c1OC(F)F [1-27] | 100 | 100 | 100 | 100 | 100 | 100 | 80 | 100 | 100 | 100 | 100 | 100 | 100 | 100 | 100 | 100 | 98 | 100 | 100 | 100 | Pre-emerge crop damage CORN (phytotoxicity rating) [12, 35]: 55; Pre-emerge crop damage SOY (phytotoxicity rating) [13, 35]: 35; Pre-emerge crop damage RICE (phytotoxicity rating) [14, 35]: 85; Pre-emerge crop damage WHEAT (phytotoxicity rating) [15, 35]: 80; Post-emerge Herbicidal Activity SOH (phytotoxicity rating) [25]: 75; Post-emerge Herbicidal Activity DIS (phytotoxicity rating) [26]: 60; Post-emerge crop damage CORN (phytotoxicity rating) [27, 36]: 60; Post-emerge crop damage SOY (phytotoxicity rating) [28, 36]: 100; Post-emerge crop damage RICE (phytotoxicity rating) [29, 36]: 90; Post-emerge crop damage WHEAT (phytotoxicity rating) [30, 36]: 75
3 | CCC1C(=O)Nc2c(-c3nn(C)c(OC(F)F)c3Cl)c(F)cc3c2N1C(=O)CO3 (stereo not drawn) [1-28] | 100 | 100 | 100 | 100 | 100 | 98 | 100 | 100 | 100 | 100 | 100 | 100 | 100 | 100 | 100 | 100 | 100 | 100 | 100 | 99 | Pre-emerge crop damage CORN (phytotoxicity rating) [12, 35]: 85; Pre-emerge crop damage SOY (phytotoxicity rating) [13, 35]: 40; Pre-emerge crop damage RICE (phytotoxicity rating) [14, 35]: 75; Pre-emerge crop damage WHEAT (phytotoxicity rating) [15, 35]: 65; Post-emerge Herbicidal Activity SOH (phytotoxicity rating) [25]: 80; Post-emerge Herbicidal Activity DIS (phytotoxicity rating) [26]: 15; Post-emerge crop damage CORN (phytotoxicity rating) [27, 36]: 25; Post-emerge crop damage SOY (phytotoxicity rating) [28, 36]: 100; Post-emerge crop damage RICE (phytotoxicity rating) [29, 36]: 100; Post-emerge crop damage WHEAT (phytotoxicity rating) [30, 36]: 50
4 | Cn1nc(-c2c(F)cc3c4c2NC(=O)C(c2ccccc2)N4C(=O)CO3)c(Cl)c1OC(F)F (stereo not drawn) [1-33] | 100 | 100 | 65 | 70 | 100 | 100 | 75 | 99 | 55 | 70 | 100 | 99 | 100 | 60 | 98 | 99 | 70 | 70 | 95 | 65 | Pre-emerge crop damage CORN (phytotoxicity rating) [12, 35]: 0; Pre-emerge crop damage SOY (phytotoxicity rating) [13, 35]: 15; Pre-emerge crop damage RICE (phytotoxicity rating) [14, 35]: 10; Pre-emerge crop damage WHEAT (phytotoxicity rating) [15, 35]: 10; Post-emerge Herbicidal Activity SOH (phytotoxicity rating) [25]: 65; Post-emerge Herbicidal Activity DIS (phytotoxicity rating) [26]: 25; Post-emerge crop damage CORN (phytotoxicity rating) [27, 36]: 25; Post-emerge crop damage SOY (phytotoxicity rating) [28, 36]: 60; Post-emerge crop damage RICE (phytotoxicity rating) [29, 36]: 95; Post-emerge crop damage WHEAT (phytotoxicity rating) [30, 36]: 65
